Data from patent publication US6673798B2, “PDGF receptor kinase inhibitory compounds, their preparation, purification and pharmaceutical compositions including same” (Yissum Research Development Company of the Hebrew …, priority 1999, dated 2004).

How the values were obtained:
[1] = target: T1, PDGFβR (Mus musculus, UniProt P05622); assay: PDGF-induced PDGFβR autophosphorylation in intact Swiss 3T3 cells (FIG. 8); format: cell-based; details: at 1 μM
T1 construct: A preparation of purified PDGFR from Swiss 3T3 cell membranes was used; endogenous in cells
Protocol: Kinase reactions, using an isolated PDGFβR preparation, in the presence of 0.03-3 μM tyrphostin, were conducted, utilizing [γ-^32P]ATP as probe. Densitometric evaluation, relative to control lacking the tyrphostin inhibitor (100%), results in the percent autokinase activity, presented in Table 8 and in the dose-response curves for the purified transoid isomers AG2033 (FIG. 6) and AG2043 (FIG. 7). Further comparison between the resulting autoradiogrms for each pair of geometrical isomers AG2033 and AG2034 (upper panel); AG2043 and AG2044 (lower panel), for their inhibitory activity towards PDGF-induced PDGFβR autophosphorylation (concentration range: 0.1-10 μM) in intact cells is presented in FIG. 8. […] Similar potency relation exists between the AG2043 and AG2044 isomers.

[2] = system: PAEC/PDGFR cells; assay: Proliferation of PDGFβR transfected PAEC cells ([3H]thymidine incorporation); format: cell-based, porcine; details: Sus scrofa, read-out: IC50 (50% inhibition of proliferation) PDGFβR
Protocol: (§1) Porcine aortic endothelial cells (PAEC), stably transfected with either PDGF-receptor (PAEC/PDGFβR cells, kindly provided by Dr. L. Claesson-Welsh, Uppsala, Sweden) or VEGF-receptor KDR (PAEC/KDR), respectively, were used as previously described. Cells were routinely cultured in Ham's F-12 medium supplemented with geneticin (0.4 mg/ml) and 10% FCS.
(§2) Assessment of cell proliferation ([^3H]thymidine incorporation assay): PAEC/KDR and PAEC/PDGFR cells, grown in Ham's F12 medium containing 10% FCS were seeded sparsely in 12 well culture dishes. After 24 hours, cells were washed two times with Ham's F12 medium containing 1% FCS and incubated for additional 48 hours with one renewal of medium. Cells were incubated for 15 minute with different concentrations of AG2033 (0.1; 1 and 10 μM) or with the solvent DMSO alone, stimulated with 3 ng/ml VEGF or with 15 ng/ml PDGF-BB for 20 hours, followed by addition of 0.25 μCi of [^3H]-thymidine/ml (Amersham) for two hours. High molecular weight [^3H]-radioactivity was precipitated using 5% trichloroacetic acid at 4° C. for 30 minutes. After two washes with ice-cold H2O, [^3H]-radioactivity was solubilized in 1 M NaOH (400 μl/well) at room temperature for 8 minutes, neutralized by the addition of 2 M HCL (400 μl/well), and quantitated by liquid scintillation counting. […]

[3] = system: PAEC/KDR cells; assay: Proliferation of KDR transfected PAEC cells ([3H]thymidine incorporation); format: cell-based, porcine; details: Sus scrofa, read-out: IC50 (50% inhibition of proliferation) KDR
Protocol: as §1, §2

[4] = system: PAEC/PDGFR cells; assay: Migration of PDGFβR transfected PAEC cells toward PDGF-BB (Boyden chamber); format: cell-based, porcine; details: Sus scrofa, PDGF-BB 10 ng/ml, read-out: IC50 (50% inhibition of migration) PDGFβR
Protocol: (§3) Assessment of cell migration (Chemotaxis assay): The chemotactic response of HCASMC, PAEC/KDR and PAEC/PDGFR cells was assessed using the modified Boyden chamber (Neuro Probe, Inc.) and collagen-coated polycarbonate filters (Nucleopore) with pore diameters of 8 μm as previously described. Briefly, PAEC/KDR and PAEC/PDGFR cells were cultivated and assayed in Ham's F12 medium containing 10% FCS. HCASMC were cultivated in SmGM-2 (clonetics) and assayed in SmBM-WM containing 10% FCS and 0.1% BSA. To the medium in the lower part of the Boyden chamber, either VEGF or PDGF-BB (10 ng/ml, respectively) were added. AG2033 was added to both upper and lower chamber parts. Suspended cells were given 4 hours for migration, after a preincubation period of 15 minute in AG2033. The number of cells that migrated without PDGF-BB or VEGF stimulation was referred to as 100% migration (chemokinesis). The assay was performed in triplicate, and five medium-power fields were counted per well using a light microscope (Jenalab).
(§4) Evaluation of PDGFβR or KDR stably transfected PAEC cells migration toward the respective growth factors, PDGD-BB and VEGF (10 ng/ml, respectively), in the presence of the purified AG2033 isomer, was conducted in a Boyden chamber (see experimental section, above). […]

[5] = system: PAEC/KDR cells; assay: Migration of KDR transfected PAEC cells toward VEGF (Boyden chamber); format: cell-based, porcine; details: Sus scrofa, VEGF 10 ng/ml, read-out: IC50 (50% inhibition of migration) KDR
Protocol: as §3, §4

[6] = system: porcine SMC; assay: Inhibition of SMC proliferation and recovery (cell count); format: cell-based; details: 10 μM
Protocol: Smooth muscle cells (SMC) were obtained under aseptic conditions from porcine abdominal aortas. Each artery was cut open and the endothelial surface mechanically scraped. The vessels were then cut into 2 mm^2 fragments which were placed in culture dishes with Dulbecco's modified Eagle's medium (DMEM) supplemented with 15% (v/v) fetal calf serum (FCS), 100 u/ml penicillin, 100 μg/ml streptomycin, and […]. The tissue fragments were then placed in an incubator at 37° C. under 9% CO2 atmosphere until SMC outgrowth was detected (typically within 3-7 days). […] For experiments testing the effect of tyrphostins on growth inhibition and recovery (see below), SMC from passages 1-3 were replated in 15 mm wells pretreated with 3 μg/cm^2 fibronectin (Biological Industries, Kibbutz Beit Haemek, Israel) at 15,000 cells/well.
Inhibition of cell proliferation and recovery: Monolayer cell growth inhibition and recovery experiments were repeated 3 or 4 times. Each experiment was performed in triplicate. Approximately 15,000 cells (SMC or PAEC) in 1 ml of culture medium supplemented with either 15% FCS (SMC) or 10% FCS (PAEC) were seeded on day 0 in 15 mm-wells precoated with fibronectin (SMC) or uncoated (PAEC). Cultures were treated with 10 μM of the following tyrphostin compounds: AG2033, AC2034, AG2043 and AG2044 (for SMC) or AG2033 (for PAEC) dissolved in 0.1% DMSO on days 1 and 3. On day 7, cultures were washed and the cells allowed to recover. Typically cells were counted on days 3 and 6 for inhibition, and on day 13 for recovery. The medium supplemented with serum (DMEM for SMC and Ham's F12 for PAEC) was changed every other day throughout the experiment.
Cells were grown in the presence of the specified tyrphostins and were counted on days 3, 6 and 13 in culture. On day 7 the cultures were washed and the cells allowed to recover. […] The inhibitory effect of all three compounds was reversible, and the cells resumed normal growth response as soon as the treatment with the tyrphostins was withdrawn.

T1 sequence (P05622 32-1098): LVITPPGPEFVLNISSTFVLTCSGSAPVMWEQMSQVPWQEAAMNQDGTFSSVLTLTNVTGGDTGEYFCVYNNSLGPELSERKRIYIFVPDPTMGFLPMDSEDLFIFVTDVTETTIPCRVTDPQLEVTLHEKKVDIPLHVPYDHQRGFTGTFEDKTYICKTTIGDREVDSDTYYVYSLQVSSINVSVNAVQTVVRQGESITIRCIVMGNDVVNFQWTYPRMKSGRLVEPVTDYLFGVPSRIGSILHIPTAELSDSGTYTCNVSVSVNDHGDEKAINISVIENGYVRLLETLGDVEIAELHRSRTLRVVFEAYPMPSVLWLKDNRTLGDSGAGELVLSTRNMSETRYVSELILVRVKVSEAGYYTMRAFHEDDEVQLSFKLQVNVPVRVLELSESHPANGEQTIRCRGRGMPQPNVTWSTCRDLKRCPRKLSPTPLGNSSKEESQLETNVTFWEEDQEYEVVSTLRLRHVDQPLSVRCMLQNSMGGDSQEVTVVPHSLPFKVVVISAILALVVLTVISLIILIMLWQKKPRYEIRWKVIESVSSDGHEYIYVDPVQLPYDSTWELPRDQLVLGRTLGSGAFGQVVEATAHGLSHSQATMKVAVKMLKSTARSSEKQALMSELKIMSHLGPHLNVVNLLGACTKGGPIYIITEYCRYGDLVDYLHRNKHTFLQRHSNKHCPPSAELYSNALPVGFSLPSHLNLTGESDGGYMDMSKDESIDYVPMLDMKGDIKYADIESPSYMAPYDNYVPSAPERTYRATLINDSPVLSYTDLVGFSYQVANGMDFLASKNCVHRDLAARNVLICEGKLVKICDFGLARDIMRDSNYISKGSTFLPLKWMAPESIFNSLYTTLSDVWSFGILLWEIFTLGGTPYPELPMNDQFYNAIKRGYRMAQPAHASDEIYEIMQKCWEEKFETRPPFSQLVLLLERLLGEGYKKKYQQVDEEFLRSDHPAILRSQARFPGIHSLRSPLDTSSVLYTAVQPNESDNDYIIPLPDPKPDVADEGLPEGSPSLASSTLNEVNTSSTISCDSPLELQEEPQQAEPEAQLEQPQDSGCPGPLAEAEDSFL

| inhibitory activity towards PDGF-induced PDGFβR autophosphorylation in intact cells [1] | IC50 [4] [µM] | IC50 [5] [µM] | melting point [°C] | Compound | IC50 [2] [nM] | IC50 [3] [µM] | toxic effect on the cells ([6]; SMC) | mean reduction in SMC count by day 3 ([6]; compared to DMSO treated control cells) [%] | reversibility of the inhibitory effect on SMC proliferation ([6]; cultures washed on day 7, recovery counted day 13) |
| --- | --- | --- | --- | --- | --- | --- | --- | --- | --- |
| marked inhibitory activity | 5 | > 10 | 275 | Cc1nc2cc3nc(-c4ccccc4)cnc3cc2n1C [AG2033, 1,2-dimethyl-6-phenyl imidazolo[5,4-g]quinoxaline] | 2500 | > 10 | – | – | – |
| – | – | – | – | Cc1nc2cc3nc(-c4cccs4)cnc3cc2n1C [AG2043, 1,2-dimethyl-6-(2-thiophene) imidazolo[5,4-g]quinoxaline] | – | – | without having a substantial toxic effect | 46 | completely reversible |
